Measured values from US8518935B2, “Amorphous besifloxacin solid” (Bausch & Lomb Incorporated, priority 2009, dated 2013).
Converted amounts (≈) assume the structure as drawn.

Test: Solubility in water at room temperature and pH of about 7
Assay type: physicochemical

| Compound | solubility (pH 7, room temperature) [µg/mL] | solubility in water (room temperature) [µg/mL] |
| --- | --- | --- |
| N[C@@H]1CCCCN(c2c(F)cc3c(=O)c(C(=O)O)cn(C4CC4)c3c2Cl)C1 [amorphous besifloxacin free base, (R)-(+)-7-(3-amino-2,3,4,5,6,7-hexahydro-1H-azepin-1-yl)-1-cyclopropyl-8-chloro-6-fluoro-1,4-dihydro-4-oxoquinoline-3-carboxylic acid] | 516 (≈ 1310 µM) | – |
| N[C@@H]1CCCCN(c2c(F)cc3c(=O)c(C(=O)O)cn(C4CC4)c3c2Cl)C1 [besifloxacin free base starting material, (R)-(+)-7-(3-amino-2,3,4,5,6,7-hexahydro-1H-azepin-1-yl)-1-cyclopropyl-8-chloro-6-fluoro-1,4-dihydro-4-oxoquinoline-3-carboxylic acid] | – | 73.3 (≈ 186 µM) |
